Data as given in the supplement of paper PMC11451515.

Test system: SEM cells
Assay: cell viability relative to DMSO control; higher = less cytotoxic
Conditions: 48 h
In short: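 NOMO1 or SEM cells were plated at 500 cells/well and P12-Ichikawa cells at 1000 cells/well in 1536-well plates (5 μl), after each leukemia line had been adapted for at least four passages in each medium. Pin dosing delivered library compounds in DMSO at 11 threefold concentrations, 47 μM to 0.79 nM. CellTiter-Glo One luminescence was read after 48 h at 37°C. Viability is reported as a per-plate percentage of DMSO wells, with cell-free wells as background.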

[1] = HPLM + 10% dialyzed FBS, 0.000781 µM
[2] = HPLM + 10% dialyzed FBS, 0.00234 µM
[3] = HPLM + 10% dialyzed FBS, 0.00702 µM
[4] = HPLM + 10% dialyzed FBS, 0.0211 µM
[5] = HPLM + 10% dialyzed FBS, 0.0632 µM
[6] = HPLM + 10% dialyzed FBS, 0.19 µM
[7] = HPLM + 10% dialyzed FBS, 0.569 µM
[8] = HPLM + 10% dialyzed FBS, 1.71 µM
[9] = HPLM + 10% dialyzed FBS, 5.12 µM
[10] = HPLM + 10% dialyzed FBS, 15.4 µM
[11] = HPLM + 10% dialyzed FBS, 46.1 µM
[12] = RPMI 5 mM glucose + 10% FBS, 0.000781 µM
[13] = RPMI 5 mM glucose + 10% FBS, 0.00234 µM
[14] = RPMI 5 mM glucose + 10% FBS, 0.00702 µM
[15] = RPMI 5 mM glucose + 10% FBS, 0.0211 µM
[16] = RPMI 5 mM glucose + 10% FBS, 0.0632 µM
[17] = RPMI 5 mM glucose + 10% FBS, 0.19 µM
[18] = RPMI 5 mM glucose + 10% FBS, 0.569 µM
[19] = RPMI 5 mM glucose + 10% FBS, 1.71 µM
[20] = RPMI 5 mM glucose + 10% FBS, 5.12 µM
[21] = RPMI 5 mM glucose + 10% FBS, 15.4 µM
[22] = RPMI 5 mM glucose + 10% FBS, 46.1 µM
[23] = RPMI 5 mM glucose + 10% dialyzed FBS, 0.000781 µM
[24] = RPMI 5 mM glucose + 10% dialyzed FBS, 0.00234 µM
[25] = RPMI 5 mM glucose + 10% dialyzed FBS, 0.00702 µM
[26] = RPMI 5 mM glucose + 10% dialyzed FBS, 0.0211 µM
[27] = RPMI 5 mM glucose + 10% dialyzed FBS, 0.0632 µM
[28] = RPMI 5 mM glucose + 10% dialyzed FBS, 0.19 µM
[29] = RPMI 5 mM glucose + 10% dialyzed FBS, 0.569 µM
[30] = RPMI 5 mM glucose + 10% dialyzed FBS, 1.71 µM
[31] = RPMI 5 mM glucose + 10% dialyzed FBS, 5.12 µM
[32] = RPMI 5 mM glucose + 10% dialyzed FBS, 15.4 µM
[33] = RPMI 5 mM glucose + 10% dialyzed FBS, 46.1 µM

CN1CCN(c2ccc([N+](=O)[O-])c3no[n+]([O-])c23)CC1
cell viability [1]: 93.2% | cell viability [2]: 89% | cell viability [3]: 87.3% | cell viability [4]: 94.7% | cell viability [5]: 81.1% | cell viability [6]: 95.2% | cell viability [7]: 97% | cell viability [8]: 85.9% | cell viability [9]: 88.7% | cell viability [10]: 82.2% | cell viability [11]: 52.4% | cell viability [12]: 84.6% | cell viability [13]: 103% | cell viability [14]: 91.4% | cell viability [15]: 101% | cell viability [16]: 105% | cell viability [17]: 106% | cell viability [18]: 87.4% | cell viability [19]: 101% | cell viability [20]: 110% | cell viability [21]: 98.4% | cell viability [22]: 69.1% | cell viability [23]: 85.9% | cell viability [24]: 97.3% | cell viability [25]: 93.4% | cell viability [26]: 89.3% | cell viability [27]: 85.2% | cell viability [28]: 99.4% | cell viability [29]: 99.1% | cell viability [30]: 93.3% | cell viability [31]: 92.4% | cell viability [32]: 76.1% | cell viability [33]: 46.1%

C\C1=C(\C=C(C#N)/C(=O)N1)C2=C[N]3C=CN=C3C=C2
cell viability [1]: 66.9% | cell viability [2]: 77.5% | cell viability [3]: 81.6% | cell viability [4]: 75% | cell viability [5]: 82.2% | cell viability [6]: 72.6% | cell viability [7]: 71.8% | cell viability [8]: 87.4% | cell viability [9]: 91.4% | cell viability [10]: 83.3% | cell viability [11]: 94.7% | cell viability [12]: 73.7% | cell viability [13]: 88% | cell viability [14]: 82.8% | cell viability [15]: 96.8% | cell viability [16]: 90.4% | cell viability [17]: 73.6% | cell viability [18]: 94.6% | cell viability [19]: 85.9% | cell viability [20]: 102% | cell viability [21]: 99.2% | cell viability [22]: 89.6% | cell viability [23]: 79.6% | cell viability [24]: 72.2% | cell viability [25]: 87.6% | cell viability [26]: 88% | cell viability [27]: 81.8% | cell viability [28]: 77.7% | cell viability [29]: 86.6% | cell viability [30]: 98.8% | cell viability [31]: 86.9% | cell viability [32]: 93.4% | cell viability [33]: 94%

CCC(C)(C)c1ccc(CC(C)CN2C[C@@H](C)O[C@@H](C)C2)cc1 (stereo partly drawn)
cell viability [1]: 69% | cell viability [2]: 62.1% | cell viability [3]: 88.1% | cell viability [4]: 87.3% | cell viability [5]: 72.2% | cell viability [6]: 64.7% | cell viability [7]: 74.7% | cell viability [8]: 75.5% | cell viability [9]: 84.1% | cell viability [10]: 67.8% | cell viability [11]: 74.3% | cell viability [12]: 80% | cell viability [13]: 67.6% | cell viability [14]: 87.1% | cell viability [15]: 79.9% | cell viability [16]: 89.4% | cell viability [17]: 36.3% | cell viability [18]: 91.8% | cell viability [19]: 86.6% | cell viability [20]: 84.5% | cell viability [21]: 71.9% | cell viability [22]: 76.8% | cell viability [23]: 71% | cell viability [24]: 67.1% | cell viability [25]: 94.5% | cell viability [26]: 91.7% | cell viability [27]: 83.4% | cell viability [28]: 78.6% | cell viability [29]: 114% | cell viability [30]: 82.9% | cell viability [31]: 89.7% | cell viability [32]: 67.9% | cell viability [33]: 78%

FC(F)c1nc2ccccc2n1-c1nc(N2CCOCC2)nc(N2CCOCC2)n1
cell viability [1]: 85.1% | cell viability [2]: 79% | cell viability [3]: 83.6% | cell viability [4]: 85.9% | cell viability [5]: 73.8% | cell viability [6]: 62.8% | cell viability [7]: 61.3% | cell viability [8]: 66.6% | cell viability [9]: 49.7% | cell viability [10]: 60% | cell viability [11]: 38.7% | cell viability [12]: 87.6% | cell viability [13]: 80.7% | cell viability [14]: 93.5% | cell viability [15]: 84.4% | cell viability [16]: 75.3% | cell viability [17]: 70.5% | cell viability [18]: 75.6% | cell viability [19]: 63.1% | cell viability [20]: 66% | cell viability [21]: 62.4% | cell viability [22]: 45.8% | cell viability [23]: 84.2% | cell viability [24]: 78.9% | cell viability [25]: 71.9% | cell viability [26]: 87.5% | cell viability [27]: 72.2% | cell viability [28]: 68.7% | cell viability [29]: 60.6% | cell viability [30]: 63.1% | cell viability [31]: 66% | cell viability [32]: 54.3% | cell viability [33]: 37.1%

O=C(Nc1cc2cc[nH]c2cn1)c1ccccc1
cell viability [1]: 87.7% | cell viability [2]: 95.6% | cell viability [3]: 90.4% | cell viability [4]: 104% | cell viability [5]: 85.6% | cell viability [6]: 102% | cell viability [7]: 109% | cell viability [8]: 104% | cell viability [9]: 18.5% | cell viability [10]: 4.59% | cell viability [11]: 2.37% | cell viability [12]: 75.6% | cell viability [13]: 89.4% | cell viability [14]: 92.4% | cell viability [15]: 90.8% | cell viability [16]: 92.8% | cell viability [17]: 106% | cell viability [18]: 104% | cell viability [19]: 90% | cell viability [20]: 4.38% | cell viability [21]: 2.43% | cell viability [22]: 1% | cell viability [23]: 85.4% | cell viability [24]: 95.1% | cell viability [25]: 98.7% | cell viability [26]: 98.8% | cell viability [27]: 96.8% | cell viability [28]: 102% | cell viability [29]: 112% | cell viability [30]: 117% | cell viability [31]: 6.2% | cell viability [32]: 5.18% | cell viability [33]: 2.59%

CNC1CCC(N(Cc2cccc(-c3ccncc3)c2)C(=O)c2sc3c(F)ccc(F)c3c2Cl)CC1 (stereo not drawn)
cell viability [1]: 80.2% | cell viability [2]: 102% | cell viability [3]: 106% | cell viability [4]: 117% | cell viability [5]: 103% | cell viability [6]: 101% | cell viability [7]: 102% | cell viability [8]: 113% | cell viability [9]: 93.3% | cell viability [10]: 85.3% | cell viability [11]: 53.2% | cell viability [12]: 97.5% | cell viability [13]: 101% | cell viability [14]: 120% | cell viability [15]: 105% | cell viability [16]: 109% | cell viability [17]: 95.9% | cell viability [18]: 98% | cell viability [19]: 110% | cell viability [20]: 99.9% | cell viability [21]: 92.3% | cell viability [22]: 73.3% | cell viability [23]: 93.7% | cell viability [24]: 99.3% | cell viability [25]: 113% | cell viability [26]: 107% | cell viability [27]: 104% | cell viability [28]: 74.7% | cell viability [29]: 101% | cell viability [30]: 91.9% | cell viability [31]: 90.3% | cell viability [32]: 85.9% | cell viability [33]: 69.2%

COc1cc2c(cc1OC)CC(=O)N(CCCN(C)C[C@H]1Cc3cc(OC)c(OC)cc31)CC2.Cl
cell viability [1]: 102% | cell viability [2]: 96.8% | cell viability [3]: 116% | cell viability [4]: 115% | cell viability [5]: 112% | cell viability [6]: 125% | cell viability [7]: 114% | cell viability [8]: 111% | cell viability [9]: 112% | cell viability [10]: 114% | cell viability [11]: 105% | cell viability [12]: 99.2% | cell viability [13]: 105% | cell viability [14]: 96.3% | cell viability [15]: 114% | cell viability [16]: 113% | cell viability [17]: 107% | cell viability [18]: 107% | cell viability [19]: 95.7% | cell viability [20]: 111% | cell viability [21]: 92.9% | cell viability [22]: 93.4% | cell viability [23]: 93.6% | cell viability [24]: 112% | cell viability [25]: 108% | cell viability [26]: 117% | cell viability [27]: 104% | cell viability [28]: 88.3% | cell viability [29]: 105% | cell viability [30]: 104% | cell viability [31]: 103% | cell viability [32]: 113% | cell viability [33]: 92%

CN[C@@H]1[C@H](O)[C@H](NC)[C@H]2O[C@@]3(O)C(=O)C[C@@H](C)O[C@H]3O[C@@H]2[C@H]1O
cell viability [1]: 119% | cell viability [2]: 125% | cell viability [3]: 122% | cell viability [4]: 123% | cell viability [5]: 121% | cell viability [6]: 120% | cell viability [7]: 118% | cell viability [8]: 122% | cell viability [9]: 113% | cell viability [10]: 115% | cell viability [11]: 109% | cell viability [12]: 120% | cell viability [13]: 110% | cell viability [14]: 126% | cell viability [15]: 117% | cell viability [16]: 115% | cell viability [17]: 113% | cell viability [18]: 123% | cell viability [19]: 110% | cell viability [20]: 104% | cell viability [21]: 104% | cell viability [22]: 104%
